The compounds below were run against POLRMT (Homo sapiens (Human), UniProt O00411) (assay: homogeneous TR-FRET assay of mitochondrial transcription (inhibition of POLRMT)). Settings: 7.5 nM POLRMT, 15 nM TFB2M, 30 nM TFAM, 0.5 nM DNA template, 500 μM NTPs, 37° C. for 60 minutes.
Type: biochemical
Procedure, shortened: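 POLRMT transcription from linearized pUC-LSP DNA template; RNA product detected by hybridization of ATTO647 acceptor (1 nM) and biotinylated donor (3 nM) probes plus Europium-streptavidin. Reaction stopped with EDTA/700 mM NaCl buffer, pH 7.5.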

Sequence of POLRMT (O00411 42-1230): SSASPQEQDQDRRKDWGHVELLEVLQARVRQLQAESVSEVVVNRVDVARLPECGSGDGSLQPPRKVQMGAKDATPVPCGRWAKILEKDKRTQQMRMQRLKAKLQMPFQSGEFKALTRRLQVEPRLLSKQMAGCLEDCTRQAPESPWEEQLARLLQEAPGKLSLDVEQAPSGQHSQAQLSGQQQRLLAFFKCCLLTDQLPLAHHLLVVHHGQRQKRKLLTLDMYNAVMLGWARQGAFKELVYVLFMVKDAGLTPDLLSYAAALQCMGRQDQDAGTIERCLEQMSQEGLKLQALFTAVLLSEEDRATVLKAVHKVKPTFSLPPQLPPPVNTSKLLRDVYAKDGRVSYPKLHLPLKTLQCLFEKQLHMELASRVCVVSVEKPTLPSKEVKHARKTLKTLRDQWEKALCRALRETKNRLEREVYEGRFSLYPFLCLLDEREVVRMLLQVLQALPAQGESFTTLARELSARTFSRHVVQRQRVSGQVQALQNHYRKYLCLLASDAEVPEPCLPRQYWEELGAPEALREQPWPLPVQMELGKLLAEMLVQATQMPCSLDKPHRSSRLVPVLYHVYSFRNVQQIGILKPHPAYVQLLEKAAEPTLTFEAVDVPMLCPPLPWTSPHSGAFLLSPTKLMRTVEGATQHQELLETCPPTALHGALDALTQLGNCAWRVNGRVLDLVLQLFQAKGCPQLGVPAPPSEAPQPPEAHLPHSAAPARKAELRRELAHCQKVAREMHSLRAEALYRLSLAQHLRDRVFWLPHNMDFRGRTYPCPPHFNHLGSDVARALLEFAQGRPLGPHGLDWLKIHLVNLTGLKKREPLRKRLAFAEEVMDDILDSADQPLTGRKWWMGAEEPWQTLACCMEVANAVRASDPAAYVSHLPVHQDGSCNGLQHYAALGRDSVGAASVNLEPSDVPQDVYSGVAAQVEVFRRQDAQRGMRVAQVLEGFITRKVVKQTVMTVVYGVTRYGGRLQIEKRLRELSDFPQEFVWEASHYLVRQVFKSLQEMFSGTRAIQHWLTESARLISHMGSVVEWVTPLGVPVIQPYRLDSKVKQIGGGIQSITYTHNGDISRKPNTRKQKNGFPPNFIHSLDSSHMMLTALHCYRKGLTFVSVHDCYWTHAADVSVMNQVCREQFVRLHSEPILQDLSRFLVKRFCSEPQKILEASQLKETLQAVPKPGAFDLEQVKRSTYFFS

SMILES | IC50 [µM]
Cc1ccccc1-c1cc(=O)oc2cc(N[C@@H](C)CC(=O)O)ccc12 [Example 149, (S)-3-((2-oxo-4-(o-tolyl)-2H-chromen-7-yl)amino)butanoic acid] | 1
CNC(=O)[C@H]1CCCN(C(=O)C(C)Cc2ccc3c(-c4ccccc4C)cc(=O)oc3c2)C1 (single isomer, unassigned) [Example 93] | 17
Cc1ccccc1-c1cc(=O)oc2cc(CC(C)C(=O)N(C)C)ccc12 (single isomer, unassigned) [Example 65, N,N,2-trimethyl-3-(2-oxo-4-(o-tolyl)-2H-chromen-7-yl)propanamide] | 17
Cc1ccccc1-c1cc(=O)oc2cc(N(C)[C@H](C)C(=O)O)ccc12 [Example 108, N-methyl-N-(2-oxo-4-(o-tolyl)-2H-chromen-7-yl)-D-alanine] | 0.04
Cc1ccccc1-c1cc(=O)oc2cc(NCc3ccccc3)ccc12 [Example 107, 7-(benzylamino)-4-(o-tolyl)-2H-chromen-2-one] | 3
CCOC(=O)C(C)Cc1ccc2c(-c3ccccc3C)cc(=O)oc2c1 (stereo not drawn) [Example 51, ethyl 2-methyl-3-[4-(o-tolyl)-2-oxo-chromen-7-yl]propanoate] | 0.3
Cc1ccccc1-c1cc(=O)oc2cc(CNC(=O)C3CCC(C(=O)O)CC3)ccc12 [Example 152, (1R,4R)-4-(((2-oxo-4-(o-tolyl)-2H-chromen-7-yl)methyl)carbamoyl)cyclohexane-1-carboxylic acid] | 0.3
Cc1ccccc1-c1cc(=O)oc2cc(N(C)[C@H](C)C(=O)N3CCC[C@H](C(=O)O)C3)ccc12 [Example 75, (S)-1-(N-methyl-N-(2-oxo-4-(o-tolyl)-2H-chromen-7-yl)-D-alanyl)piperidine-3-carboxylic acid] | 0.03
CC(=O)NC(C)c1ccc2c(-c3ccccc3C)cc(=O)oc2c1 (stereo not drawn) [Example 96, N-(1-(2-oxo-4-(o-tolyl)-2H-chromen-7-yl)ethyl)acetamide] | 2
Cc1ccccc1-c1cc(=O)oc2cc(C(=O)N3CCCC(N(C)C)C3)ccc12 (stereo not drawn) [Example 170, 7-(3-(dimethylamino)piperidine-1-carbonyl)-4-(o-tolyl)-2H-chromen-2-one] | > 100
Cc1ccccc1-c1cc(=O)oc2cc(CNC(=O)N3CCC(C(=O)O)CC3)ccc12 [Example 151, 1-(((2-oxo-4-(o-tolyl)-2H-chromen-7-yl)methyl)carbamoyl)piperidine-4-carboxylic acid] | 3
COCc1ccc2c(-c3ccccc3C)cc(=O)oc2c1 [Example 10, 7-(methoxymethyl)-4-(o-tolyl)-2H-chromen-2-one] | 0.4
C[C@@H](Cc1ccc2c(-c3ccc(F)cc3Cl)cc(=O)oc2c1)C(=O)N1CCC[C@H](C(=O)O)C1 [Example 186, (S)-1-((S)-3-(4-(2-chloro-4-fluorophenyl)-2-oxo-2H-chromen-7-yl)-2-methylpropanoyl)piperidine-3-carboxylic acid] | 28
Cc1ccccc1-c1cc(=O)oc2cc(CCC(=O)N3CCCCC3)ccc12 [Example 49, 7-(3-oxo-3-(piperidin-1-yl)propyl)-4-(o-tolyl)-2H-chromen-2-one] | 1
CNC(=O)CCN(C)c1ccc2c(-c3ccc(F)cc3Cl)cc(=O)oc2c1 [Example 138, 3-((4-(2-chloro-4-fluorophenyl)-2-oxo-2H-chromen-7-yl)(methyl)amino)-N-methylpropanamide] | 2
Cc1ccccc1-c1cc(=O)oc2cc(CC(=O)O)ccc12 [Example 233, 2-(2-oxo-4-(o-tolyl)-2H-chromen-7-yl) acetic acid] | 5
CC(=O)NC[C@H]1CCN(C(=O)c2ccc3c(-c4ccccc4C)cc(=O)oc3c2)C1 [Example 174, (R)—N-((1-(2-oxo-4-(o-tolyl)-2H-chromene-7-carbonyl)pyrrolidin-3-yl)methyl)acetamide] | 47
CCNC(=O)[C@@H](C)Nc1ccc2c(-c3ccc(F)cc3Cl)cc(=O)oc2c1 [Example 48, (R)-2-((4-(2-chloro-4-fluorophenyl)-2-oxo-2H-chromen-7-yl)amino)-N-ethylpropanamide] | 3
Cc1ccccc1-c1cc(=O)oc2cc(CC(C)C(N)=O)ccc12 (single isomer, unassigned) [Example 69, 2-methyl-3-(2-oxo-4-(o-tolyl)-2H-chromen-7-yl)propanamide] | 5
COc1ccccc1-c1cc(=O)oc2cc(NC(=O)C(C)C)ccc12 [Example 30, N-(4-(2-methoxyphenyl)-2-oxo-2H-chromen-7-yl) isobutyramide] | > 100

The next lines start with the values.

IC50 [µM] | SMILES
0.2 | Cc1ccccc1-c1cc(=O)oc2cc(N(C)CC(N)=O)ccc12 [Example 106, 2-(methyl(2-oxo-4-(o-tolyl)-2H-chromen-7-yl)amino)acetamide]
2 | Cc1ccccc1-c1cc(=O)oc2cc(NCc3ccnn3C)ccc12 [Example 192, 7-(((1-methyl-1H-pyrazol-5-yl)methyl)amino)-4-(o-tolyl)-2H-chromen-2-one]
0.2 | CNC(=O)C1CC1c1ccc2c(-c3ccccc3C)cc(=O)oc2c1 (stereo not drawn) [Example 136, chiral-N-methyl-2-(2-oxo-4-(o-tolyl)-2H-chromen-7-yl)cyclopropane-1-carboxamide]
0.09 | Cc1ccccc1-c1cc(=O)oc2cc(N(C)Cc3ccccn3)ccc12 [Example 168, 7-(methyl(pyridin-2-ylmethyl)amino)-4-(o-tolyl)-2H-chromen-2-one]
4 | Cc1ccccc1-c1cc(=O)oc2cc(NCCC(=O)O)ccc12 [Example 145, 3-((2-oxo-4-(o-tolyl)-2H-chromen-7-yl)amino)propanoic acid]
73 | CC(=O)N(C)[C@H]1CCCN(C(=O)c2ccc3c(-c4ccccc4C)cc(=O)oc3c2)C1 [Example 173, (S)—N-methyl-N-(1-(2-oxo-4-(o-tolyl)-2H-chromene-7-carbonyl)piperidin-3-yl)acetamide]
0.4 | Cc1ccccc1-c1cc(=O)oc2cc(N(C)C)ccc12 [Example 01, 7-(dimethylamino)-4-(o-tolyl)-2H-chromen-2-one]
> 100 | CC(=O)N(C)[C@@H]1CCCN(C(=O)c2ccc3c(-c4ccccc4C)cc(=O)oc3c2)C1 [Example 172, (R)—N-methyl-N-(1-(2-oxo-4-(o-tolyl)-2H-chromene-7-carbonyl)piperidin-3-yl)acetamide]
0.06 | Cc1ccccc1-c1cc(=O)oc2cc(CC(C)C(=O)N3CCC[C@H](C#N)C3)ccc12 (single isomer, unassigned) [Example 83]
1 | CCOC(C)c1ccc2c(-c3ccc(F)cc3Cl)cc(=O)oc2c1 (single isomer, unassigned) [Example 41, 4-(2-chloro-4-fluorophenyl)-7-(1-ethoxyethyl)-2H-chromen-2-one]
2 | COCC(C(N)=O)N(C)c1ccc2c(-c3ccccc3C)cc(=O)oc2c1 (stereo not drawn) [Example 202, 3-methoxy-2-(methyl(2-oxo-4-(o-tolyl)-2H-chromen-7-yl)amino)propanamide]
0.8 | C[C@@H](Cc1ccc2c(-c3ccc(F)cc3Cl)cc(=O)oc2c1)C(=O)N(C)C [Example 20, (S)-3-(4-(2-chloro-4-fluorophenyl)-2-oxo-2H-chromen-7-yl)-N,N,2-trimethylpropanamide]
42 | CC(=O)NC[C@@H]1CCN(C(=O)c2ccc3c(-c4ccccc4C)cc(=O)oc3c2)C1 [Example 196, (S)—N-((1-(2-oxo-4-(o-tolyl)-2H-chromene-7-carbonyl)pyrrolidin-3-yl)methyl)acetamide]

— US20250326732A1 (Pretzel Therapeutics, Inc., priority 2021, published 2025)
